Paper PMC8179358, “An explicitly designed paratope of amyloid-β prevents neuronal apoptosis in vitro and hippocampal damage in rat brain” (Chemical Science, 2020)

Key:
Assay type in all cases: biochemical
Aβ42 [1] = assay: DLS of Aβ42 aggregates; conditions: untreated Aβ42 50 μM
Description: Dynamic light scattering (DLS) measurements
DLS1,2 measurements were performed with the different Aβ42peptide samples (oligomers and mature fibrils) on a Malvern nano zetasizer (Malvern, UK) using a laser source with λ=633 nm and a detector at a scattering angle of θ = 173 degrees.
for the ThT assay, in the absence of ThT dye, for 1h, 5h, 10h and 20h min to generate oligomers and mature fibrils, respectively and the hydrodynamic diameter of them was immediately examined by DLS.
Prior to the analysis, samples were filtered through 0.45 µm PVDF membrane. The samples were placed in a disposable cuvette and held at the corresponding temperature during the analysis. For each sample, the analyses were recorded three times with 11 sub-runs using the multimodal mode. The Z-average diameter was calculated from the correlation function using Malvern technology software. g.

Aβ42 [2] = assay: TEM of early events of Aβ42 aggregation; conditions: absence of SP1; 1, 5, 10, 20 h
Description: Transmission Electron Microscopy (TEM)
10μL aliquot from the stock peptide solution after incubation of 10 days (7 days for inhibition study) was added over the carbon-coated copper grid. Then 2% uranyl acetate solution (10μL) was added onto it and allowed to float for 1 min. The excess solution was removed using a blotting paper. The sample was dried at room temperature and kept in desiccators before taking TEM analysis on JEOL (Model: JEM 2100)

[3] = Carboxyfluorescein dye leakage from LUVs, Aβ42; conditions: Aβ42 50 μM
Description: Carboxyfluorescein dye loaded Large Unilamellar Vesicles (LUVs) preparation LUVs were prepared using a mixture of DMPC, Cholesterol, and GM1 (68:30:2, molar). Lipids were dissolved in chloroform and methanol (2:1, 2 mM) in a glass vessel, and solvents were evaporated using nitrogen gas to make lipid films.3 The lipid films were hydrated with 500 µL of carboxyfluorescein (CF) solution (200 µM) in 50mM HEPES buffer of pH 7.4. Then, the solution was vortexed vigorously for 30 min for emulsification. Then the glass vial was dipped into the liquid nitrogen for instant cooling, and after 5 min the frozen solution was dipped into a water bath at 50-60 °C for freeze-thawing.4This step was repeated five times. The excess dye was removed by ultracentrifugation at 20000 rpm, the supernatant […]
Carboxyfluorescein dye loaded Large Unilamellar Vesicles (LUVs) Leakage Study For leakage study, peptide and lipids were taken in 1:20 molar ratios, and the dye release was monitored by fluorescence emission. Emission was measured at 516 nm, and excitation at 485 nm, 3 nm of bandwidth on a Fluoromax-4, Horiba instrument. The complete dye release from the vesicle was obtained using Triton X-100, and the final fluorescence was measured. The % leakage was calculated as, % 𝐿𝑒𝑎𝑘𝑎𝑔𝑒 = (𝑂𝑏𝑠𝑒𝑟𝑣𝑒𝑑 𝑓𝑙𝑢𝑜𝑟𝑒𝑠𝑐𝑒𝑛𝑐𝑒 –𝑖𝑛𝑖𝑡𝑖𝑎𝑙 𝑓𝑙𝑢𝑜𝑟𝑒𝑠𝑐𝑒𝑛𝑐𝑒) × 100 % … ..(4) (𝑇𝑜𝑡𝑎𝑙 𝑓𝑙𝑢𝑜𝑟𝑒𝑠𝑐𝑒𝑛𝑐𝑒 ‒ 𝑖𝑛𝑖𝑡𝑖𝑎𝑙 𝑓𝑙𝑢𝑜𝑟𝑒𝑠𝑐𝑒𝑛𝑐𝑒) […]

Aβ42: Aβ42 peptide
hydrodynamic diameter (Aβ42 [1]; 1 h): ~8 nm
hydrodynamic diameter (Aβ42 [1]; 10 h): ~825 nm
hydrodynamic diameter (Aβ42 [1]; 20 h): ~940 nm
morphology of Aβ42 aggregates (TEM) (Aβ42 [2]): exhibited smaller aggregates at 1 h or 5 h
dye leakage from LUVs ([3]; absence of SP1, 5 h aged): ~55%
dye leakage from LUVs ([3]; absence of SP1, 10 h aged): ~23%
